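Exposure lasted 48 hours, with cells grown in 96-well plates and compounds tested at five concentrations. Abbreviation: GI50, concentration required for 50% inhibition of growth. At the TGI there is no net growth.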
tested on: HOP-92 NSCLC; test: inhibition of tumour cell growth, NCI panel, 48 h

SMILES | GI50 | TGI
O=c1cc(-c2cccc3ccccc23)[nH]c2ncccc12 | 0.773 µM | 70.1 µM
CN1CCOC(c2ccccc2)O1 (centres undefined) | – | > 100 µM
O=C(/C=C/c1cc2ccccc2o1)N1CCN(c2ccccn2)CC1 | – | > 100 µM
CCCNC(=S)NNC(=O)CSc1nc(-c2ccccc2)c(-c2ccccc2)[nH]1 | – | 97.8 µM
CC(=O)c1sc(Nc2nnc(-c3ccc(-c4nnc(Nc5nc(C)c(C(C)=O)s5)o4)cc3)o2)nc1C | – | > 100 µM
O=c1[nH]nc(Cc2ccccc2)n1/N=C/c1ccccc1O | – | > 100 µM
CC1c2c(Cl)nc3ccccc3c2Oc2c1c(Cl)nc1ccccc21 | – | > 100 µM
COC1(OC)C(N(C)C)=C(Cl)C(=O)/C1=C/C=O | – | > 100 µM
N#Cc1c2ccccc2cn1-c1ccc(F)cc1 | – | 68.5 µM
N#CCCN(C(=O)Nc1ccccc1)[C@H]1CCCC[C@@H]1N(C(=O)Nc1ccccc1)c1ccccc1 | – | > 100 µM
Cc1ccccc1N1C(=O)C2C=CC(n3[nH]c(=O)n(Cc4ccccc4)c3=O)CC2C1=O (centres undefined) | – | > 100 µM
CSc1ncnc2c1ncn2CCC(=O)OC(C)(C)C | – | > 100 µM
N#Cc1c(N)nc2n[nH]c(N)c2c1-c1ccc(Cl)cc1 | – | 6.14 µM
S=c1sc2c(Cl)nc(Cl)nc2n1-c1ccccc1 | – | > 100 µM
COC(=O)c1cc2ccc(N)nc2[nH]c1=O | – | > 100 µM
COC(=O)C1=C(O)C(C(=O)OC)[C@]2(O)[C@H](C(=O)OC)[C@H]1C[C@@H](c1ccc(C(F)(F)F)cc1)[C@H]2C(=O)OC (some centres undefined) | – | 34 µM
CCOC(=O)NC(Nc1ccc(S(=O)(=O)Nc2nc(C)cc(C)n2)cc1)(C(=O)OCC)C(F)(F)F (centres undefined) | – | > 100 µM
CC(C)(C)OC(=O)[C@H]1CCC(=S)N1Cc1ccccc1 | – | > 100 µM
O=[N+]([O-])c1ccc2c(c1)C1=C(CO2)Cc2ccccc2O1 | – | 81.5 µM
NC(=O)C12CC3CC(CC(F)(C3)C1)C2 | – | > 100 µM
CCCCNC(=S)Nc1nc(C(=O)NNC(=S)Nc2ccccc2)cs1 | – | 38.6 µM
CC(=O)Oc1c2c(c(O)c3ccccc13)C(n1cnc3c(ncn3C3OC(CO)C4OC(C)(C)OC43)c1=N)CCC2 (centres undefined) | – | 39.1 µM
CN(C)CCC(=O)c1ccccc1 | – | 44.6 µM
CCOc1ccccc1NC(=O)C(=O)CC(=O)c1sc(Nc2nnc(-c3ccc(Cl)c(Cl)c3)o2)nc1C | – | > 100 µM

tested on: CCRF-CEM leukemia; test: inhibition of tumour cell growth, NCI panel, 48 h

SMILES | GI50 | TGI
O=c1cc(-c2cccc3ccccc23)[nH]c2ncccc12 | 0.0201 µM | > 100 µM
CN1CCOC(c2ccccc2)O1 (centres undefined) | – | > 100 µM
O=C(/C=C/c1cc2ccccc2o1)N1CCN(c2ccccn2)CC1 | – | > 100 µM
CCCNC(=S)NNC(=O)CSc1nc(-c2ccccc2)c(-c2ccccc2)[nH]1 | – | > 100 µM
CC(=O)c1sc(Nc2nnc(-c3ccc(-c4nnc(Nc5nc(C)c(C(C)=O)s5)o4)cc3)o2)nc1C | – | > 100 µM
O=c1[nH]nc(Cc2ccccc2)n1/N=C/c1ccccc1O | – | > 100 µM
CC1c2c(Cl)nc3ccccc3c2Oc2c1c(Cl)nc1ccccc21 | – | > 100 µM
COC1(OC)C(N(C)C)=C(Cl)C(=O)/C1=C/C=O | – | 98.2 µM
CC(=O)Oc1ccc2c(C)cc(=O)oc2c1OC(C)=O | – | 83.7 µM
N#Cc1c2ccccc2cn1-c1ccc(F)cc1 | – | > 100 µM
N#CCCN(C(=O)Nc1ccccc1)[C@H]1CCCC[C@@H]1N(C(=O)Nc1ccccc1)c1ccccc1 | – | > 100 µM
Cc1ccccc1N1C(=O)C2C=CC(n3[nH]c(=O)n(Cc4ccccc4)c3=O)CC2C1=O (centres undefined) | – | > 100 µM
CSc1ncnc2c1ncn2CCC(=O)OC(C)(C)C | – | > 100 µM
N#Cc1c(N)nc2n[nH]c(N)c2c1-c1ccc(Cl)cc1 | – | > 100 µM
COC(=O)C1=C(C(=O)NNc2ccccc2)N(c2cccnc2Cl)C(c2ccccc2)=CC1c1ccccc1 (centres undefined) | – | > 100 µM
Nc1ncnc2c1ncn2[C@@H]1C[C@@H]1CO | – | > 100 µM
S=c1sc2c(Cl)nc(Cl)nc2n1-c1ccccc1 | – | 75.8 µM

SMILES | GI50 | TGI
CC12CC(c3ccccc3O1)C(C(=O)Nc1ccc(Cl)cc1Cl)C(=O)N2 (centres undefined) | – | 30.1 µM
CCOC(=O)C12OC(CCC1=O)C(C(=O)OC)=C2C(=O)OC (centres undefined) | – | > 10 µM
NNC(=O)c1n[nH]nc1C(=O)NN | – | > 100 µM
O=C(O)[C@@H]1CCS(=O)(=O)N1 | – | > 100 µM
CCOC(=O)NC(Nc1ccc(S(=O)(=O)Nc2nc(C)cc(C)n2)cc1)(C(=O)OCC)C(F)(F)F (centres undefined) | – | > 100 µM
CC(C)(C)OC(=O)[C@H]1CCC(=S)N1Cc1ccccc1 | – | > 100 µM
O=[N+]([O-])c1ccc2c(c1)C1=C(CO2)Cc2ccccc2O1 | – | > 100 µM
Nc1nc(SC/C=C/c2ccccc2)c2[nH]cnc2n1 | – | > 100 µM
NC(=O)C12CC3CC(CC(F)(C3)C1)C2 | – | > 100 µM
CSc1nc(Nc2cccc(C(F)(F)F)c2)c2c(N)nn(C)c2n1 | – | > 100 µM
CCCCNC(=S)Nc1nc(C(=O)NNC(=S)Nc2ccccc2)cs1 | – | > 100 µM
CC(=O)c1c(C)n([O-])c2cc(Cl)c(Cl)cc2[n+]1=O | – | 61.5 µM
O=c1c(/C=C/c2c(O)ccc3ccccc23)nnc2sc(-c3cccc(Br)c3)nn12 | – | 18.6 µM
CC(=O)Oc1c2c(c(O)c3ccccc13)C(n1cnc3c(ncn3C3OC(CO)C4OC(C)(C)OC43)c1=N)CCC2 (centres undefined) | – | 25.3 µM
CN(C)CCC(=O)c1ccccc1 | – | 62.4 µM
CCOc1ccccc1NC(=O)C(=O)CC(=O)c1sc(Nc2nnc(-c3ccc(Cl)c(Cl)c3)o2)nc1C | – | > 100 µM

tested on: UACC-257 melanoma; test: inhibition of tumour cell growth, NCI panel, 48 h

SMILES | TGI
CN1CCOC(c2ccccc2)O1 (centres undefined) | > 100 µM
O=C(/C=C/c1cc2ccccc2o1)N1CCN(c2ccccn2)CC1 | > 100 µM
CCCNC(=S)NNC(=O)CSc1nc(-c2ccccc2)c(-c2ccccc2)[nH]1 | > 100 µM
CC(=O)c1sc(Nc2nnc(-c3ccc(-c4nnc(Nc5nc(C)c(C(C)=O)s5)o4)cc3)o2)nc1C | > 100 µM
O=c1[nH]nc(Cc2ccccc2)n1/N=C/c1ccccc1O | > 100 µM
CC1c2c(Cl)nc3ccccc3c2Oc2c1c(Cl)nc1ccccc21 | > 100 µM
COC1(OC)C(N(C)C)=C(Cl)C(=O)/C1=C/C=O | > 100 µM
CC(=O)Oc1ccc2c(C)cc(=O)oc2c1OC(C)=O | > 100 µM
N#Cc1c2ccccc2cn1-c1ccc(F)cc1 | 83.8 µM
N#CCCN(C(=O)Nc1ccccc1)[C@H]1CCCC[C@@H]1N(C(=O)Nc1ccccc1)c1ccccc1 | > 100 µM
Nc1nc(N)c2c3c(cnc2n1)CC(c1ccccc1)CC3 (centres undefined) | > 100 µM
Cc1ccccc1N1C(=O)C2C=CC(n3[nH]c(=O)n(Cc4ccccc4)c3=O)CC2C1=O (centres undefined) | > 100 µM
CSc1ncnc2c1ncn2CCC(=O)OC(C)(C)C | > 100 µM
N#Cc1c(N)nc2n[nH]c(N)c2c1-c1ccc(Cl)cc1 | > 100 µM
COC(=O)C1=C(C(=O)NNc2ccccc2)N(c2cccnc2Cl)C(c2ccccc2)=CC1c1ccccc1 (centres undefined) | > 100 µM
Nc1ncnc2c1ncn2[C@@H]1C[C@@H]1CO | > 100 µM
CCOC(=O)c1nnc2c(C(=O)OCC)c3ccccc3n2c1N | 11.1 µM
S=c1sc2c(Cl)nc(Cl)nc2n1-c1ccccc1 | > 100 µM

SMILES | TGI
CC12CC(c3ccccc3O1)C(C(=O)Nc1ccc(Cl)cc1Cl)C(=O)N2 (centres undefined) | > 100 µM
COC(=O)c1cc2ccc(N)nc2[nH]c1=O | > 100 µM
COC(=O)C1=C(O)C(C(=O)OC)[C@]2(O)[C@H](C(=O)OC)[C@H]1C[C@@H](c1ccc(C(F)(F)F)cc1)[C@H]2C(=O)OC (some centres undefined) | 23.5 µM
CCOC(=O)C12OC(CCC1=O)C(C(=O)OC)=C2C(=O)OC (centres undefined) | > 10 µM
NNC(=O)c1n[nH]nc1C(=O)NN | > 100 µM
O=C(O)[C@@H]1CCS(=O)(=O)N1 | > 100 µM
CC(C)(C)OC(=O)[C@H]1CCC(=S)N1Cc1ccccc1 | > 100 µM
COc1ccc(S(=O)(=O)c2nnc(S(=O)(=O)Cc3ccccc3)s2)cc1 | 31.4 µM
O=[N+]([O-])c1ccc2c(c1)C1=C(CO2)Cc2ccccc2O1 | 33.5 µM
Nc1nc(SC/C=C/c2ccccc2)c2[nH]cnc2n1 | > 100 µM
NC(=O)C12CC3CC(CC(F)(C3)C1)C2 | > 100 µM
CSc1nc(Nc2cccc(C(F)(F)F)c2)c2c(N)nn(C)c2n1 | > 100 µM
CCCCNC(=S)Nc1nc(C(=O)NNC(=S)Nc2ccccc2)cs1 | > 100 µM
CC(=O)c1c(C)n([O-])c2cc(Cl)c(Cl)cc2[n+]1=O | 57.4 µM
O=c1c(/C=C/c2c(O)ccc3ccccc23)nnc2sc(-c3cccc(Br)c3)nn12 | > 100 µM
CC(=O)Oc1c2c(c(O)c3ccccc13)C(n1cnc3c(ncn3C3OC(CO)C4OC(C)(C)OC43)c1=N)CCC2 (centres undefined) | 21.8 µM
CN(C)CCC(=O)c1ccccc1 | > 59 µM
CCOc1ccccc1NC(=O)C(=O)CC(=O)c1sc(Nc2nnc(-c3ccc(Cl)c(Cl)c3)o2)nc1C | > 100 µM

tested on: HCT-15 colon; test: inhibition of tumour cell growth, NCI panel, 48 h

SMILES | TGI
O=c1cc(-c2cccc3ccccc23)[nH]c2ncccc12 | 10.3 µM
CN1CCOC(c2ccccc2)O1 (centres undefined) | > 100 µM
O=C(/C=C/c1cc2ccccc2o1)N1CCN(c2ccccn2)CC1 | > 100 µM
CCCNC(=S)NNC(=O)CSc1nc(-c2ccccc2)c(-c2ccccc2)[nH]1 | > 100 µM
CC(=O)c1sc(Nc2nnc(-c3ccc(-c4nnc(Nc5nc(C)c(C(C)=O)s5)o4)cc3)o2)nc1C | > 100 µM
O=c1[nH]nc(Cc2ccccc2)n1/N=C/c1ccccc1O | > 100 µM
COC1(OC)C(N(C)C)=C(Cl)C(=O)/C1=C/C=O | > 100 µM
CC(=O)Oc1ccc2c(C)cc(=O)oc2c1OC(C)=O | 81.6 µM
N#CCCN(C(=O)Nc1ccccc1)[C@H]1CCCC[C@@H]1N(C(=O)Nc1ccccc1)c1ccccc1 | > 100 µM
Nc1nc(N)c2c3c(cnc2n1)CC(c1ccccc1)CC3 (centres undefined) | > 100 µM
Cc1ccccc1N1C(=O)C2C=CC(n3[nH]c(=O)n(Cc4ccccc4)c3=O)CC2C1=O (centres undefined) | > 100 µM
N#Cc1c(N)nc2n[nH]c(N)c2c1-c1ccc(Cl)cc1 | > 72.6 µM
COC(=O)C1=C(C(=O)NNc2ccccc2)N(c2cccnc2Cl)C(c2ccccc2)=CC1c1ccccc1 (centres undefined) | > 100 µM
Nc1ncnc2c1ncn2[C@@H]1C[C@@H]1CO | > 100 µM

From PubChem BioAssay (NCI)
